Results published in PubChem BioAssay AID1199 (EPA DSSTox, 2008).
The source made the active and inactive calls.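 The calls were made as follows: active = a tumour-causing dose and a tumour site recorded for mice in at least one sex group; inconclusive = only government mouse studies exist and were judged inadequate; inactive = mouse studies exist but none gave tumours.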

Test system: mouse carcinogenicity bioassay, TD50 from CPDB
Assay: DSSTox (CPDBAS) Carcinogenic Potency Database Summary Mouse Bioassay Results
Outline: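 Values are TD50 carcinogenic potencies from mouse chronic bioassays, taking the most positive result for each sex-species. Sources are published literature and NCI/NTP studies; target sites reflect author-reported positive findings.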

[1] = TD50_Mouse_Note: TD50 is harmonic mean of more than one positive test, harmonic mean of TD50 includes a value for upper 99% confidence li, TargetSites_Mouse_Female: liver
[2] = TD50_Mouse_Note: TD50 is harmonic mean of more than one positive test, TargetSites_Mouse_Female: vascular system
[3] = TD50_Mouse_Note: no positive results, TargetSites_Mouse_Female: no positive results
[4] = TargetSites_Mouse_Female: liver
[5] = TD50_Mouse_Note: TD50 is harmonic mean of more than one positive test, TargetSites_Mouse_Female: liver
[6] = TargetSites_Mouse_Female: no positive results
[7] = TD50_Mouse_Note: TD50 is harmonic mean of more than one positive test, TargetSites_Mouse_Female: liver, vascular system
[8] = TD50_Mouse_Note: TD50 is harmonic mean of more than one positive test, TargetSites_Mouse_Female: no positive results
[9] = TD50_Mouse_Note: only experiment is NCI/NTP bioassay inadequate, TargetSites_Mouse_Female: NTP bioassay inadequate
[10] = TargetSites_Mouse_BothSexes: no positive results
[11] = TD50_Mouse_Note: TD50 is harmonic mean of more than one positive test, TargetSites_Mouse_Female: liver, lung

## Nc1ccc2oc3ccccc3c2c1
[1]
  Potency: 0.0231 mmol/kg/day

## COC(=O)[C@H]1[C@H]2C[C@@H]3c4[nH]c5cc(OC)ccc5c4CCN3C[C@H]2C[C@@H](OC(=O)c2cc(OC)c(OC)c(OC)c2)[C@@H]1OC
TD50_Mouse_Note: TD50 is harmonic mean of more than one positive test, TargetSites_Mouse_Female: mammary gland
  Potency: 0.00825 mmol/kg/day

## CN(N=O)C(=O)N[C@@H]1[C@@H](O)[C@H](O)[C@@H](CO)O[C@@H]1O
TD50_Mouse_Note: positive test results only by intraperitoneal or intravenous injection, TD50 is harmonic mean of more than one positive, TargetSites_Mouse_Female: kidney, lung
  Potency: 0.00103 mmol/kg/day

## Cc1ccc2c(c1[N+](=O)[O-])C(=O)c1ccccc1C2=O
[2]
  Potency: 0.00584 mmol/kg/day

## Cc1cc(O)c2c(c1)C(=O)c1cc(O)cc(O)c1C2=O
[3]
  outcome: inactive; no positive results

## CN(C)c1ccc(Cc2ccc(N(C)C)cc2)cc1
[4]
  Potency: 0.814 mmol/kg/day

## C/C=C\c1ccc(OC)cc1
[3]
  outcome: inactive

## ClCC(Br)CBr (centres undefined)
TD50_Mouse_Note: TD50 is harmonic mean of more than one positive test, TargetSites_Mouse_Female: lung, nasal cavity, stomach
  Potency: 0.0115 mmol/kg/day

## CC(Cl)(Cl)Cl
[3]
  outcome: inactive; no positive results

## CC(C)CCC[C@@H](C)[C@H]1CC[C@H]2[C@@H]3CC=C4C[C@@H](OC(=O)Cc5ccc(N(CCCl)CCCl)cc5)CC[C@]4(C)[C@H]3CC[C@]12C
TD50_Mouse_Note: TD50 is harmonic mean of more than one positive test, TargetSites_Mouse_Female: hematopoietic system, lung, myocardium
  Potency: 0.000955 mmol/kg/day

## CCN(Cc1cccc(S(=O)(=O)O)c1)c1ccc(C(=C2C=CC(=[N+](CC)Cc3cccc(S(=O)(=O)O)c3)C=C2)c2ccc(O)cc2S(=O)(=O)[O-])cc1
[3]
  outcome: inactive; no positive results

## CC[C@H](OC(C)=O)C(C[C@H](C)N(C)C)(c1ccccc1)c1ccccc1
[3]
  outcome: inactive; no positive results

## CC(C)Oc1ccc(Nc2ccccc2)cc1
[3]
  outcome: inactive; no positive results

## Oc1cccc2cccnc12.Oc1cccc2cccnc12.[Cu]
[3]
  outcome: inactive; no positive results

## CCCCOCCOCCOCc1cc2c(cc1CCC)OCO2
[5]
  Potency: 0.86 mmol/kg/day
[3]
  outcome: inactive; no positive results

## CCN(CC)C(=S)S
[3]
  outcome: inactive; no positive results

## CCBr
TargetSites_Mouse_Female: uterus
  Potency: 4.91 mmol/kg/day

## CC/C(=C(\c1ccccc1)c1ccc(OCCN(C)C)cc1)c1ccccc1
TD50_Mouse_Note: TD50 is harmonic mean of more than one positive test, TargetSites_Mouse_Female: ovary
  Potency: 0.00779 mmol/kg/day

## CN(N=O)C(N)=O
  Potency: 0.0119 mmol/kg/day

## O=C1O[C@H]([C@@H](O)CO)C(O)=C1O
[3]
  outcome: inactive; no positive results

## Brc1cc(Br)c(-c2c(Br)c(Br)c(Br)c(Br)c2Br)c(Br)c1Br
[5]
  Potency: 0.00418 mmol/kg/day

## Nc1ccc(N)c(Cl)c1
[3]
  outcome: inactive; no positive results

## O=[N+]([O-])c1ccc(NCCO)c(OCCO)c1
[3]
  outcome: inactive; no positive results

## Oc1ccc2ccccc2c1N=Nc1ccccc1
[3]
  outcome: inactive; no positive results

## COc1ccc2c3c1O[C@H]1[C@@H](O)C=C[C@H]4[C@@H](C2)N(C)CC[C@@]341
[3]
  outcome: inactive; no positive results

## ClC1=C(Cl)[C@]2(Cl)[C@@H]3[C@H]4C=CC(C4)[C@@H]3C1(Cl)C2(Cl)Cl
TD50_Mouse_Note: TD50 is harmonic mean of more than one positive test, TargetSites_Mouse_BothSexes: liver
  Potency: 0.00348 mmol/kg/day

## c1ccc(N=Nc2ccccc2)cc1
[3]
  outcome: inactive; no positive results

## O=S1(=O)CC=CC1
[3]
  outcome: inactive; no positive results

## CC(COc1ccccc1)N(CCCl)Cc1ccccc1 (centres undefined)
TD50_Mouse_Note: positive test results only by intraperitoneal or intravenous injection, TD50 is harmonic mean of more than one positive, TargetSites_Mouse_Female: peritoneal cavity
  Potency: 0.0158 mmol/kg/day

## CC(Oc1cc(Cl)ccc1Cl)C(=O)O (centres undefined)
[3]
  outcome: inactive; no positive results

## O=C1c2ccccc2-c2ccc3c4c(ccc1c24)-c1ccccc1C3=O
[6]
  Potency: 32.8 mmol/kg/day

## Nc1ccc2nc3ccccn3c2n1
[7]
  Potency: 0.0869 mmol/kg/day

## CC(Oc1cc(Cl)c(Cl)cc1Cl)C(=O)O (centres undefined)
[3]
  outcome: inactive; no positive results

## CC(Cl)C=O (centres undefined)
TargetSites_Mouse_Female: stomach
  Potency: 0.139 mmol/kg/day

## C#C[C@]1(O)CC[C@H]2[C@@H]3CCC4=C(CCC(=O)C4)[C@H]3CC[C@@]21C
TD50_Mouse_Note: TD50 is harmonic mean of more than one positive test, greater than ten-fold variation among TD50 values for positive res, TargetSites_Mouse_Female: pituitary gland
  outcome: active; no positive results
[3]
  outcome: inactive; no positive results

## O=S1OCCO1
[3]
  outcome: inactive

## Clc1ccc(C(c2ccc(Cl)cc2)C(Cl)(Cl)Cl)cc1
TD50_Mouse_Note: TD50 is harmonic mean of more than one positive test, greater than ten-fold variation among TD50 values for positive res, TargetSites_Mouse_Female: hematopoietic system, liver, lung
  Potency: 0.0361 mmol/kg/day

## c1ccc2sc(SSc3nc4ccccc4s3)nc2c1
[3]
  outcome: inactive; no positive results

## Oc1c(Cl)cc(Cl)c(Cl)c1Cc1c(O)c(Cl)cc(Cl)c1Cl
[3]
  outcome: inactive; no positive results

## CNc1ccc(N(CCO)CCO)cc1[N+](=O)[O-]
[5]
  Potency: 0.308 mmol/kg/day
[1]
  Potency: 0.338 mmol/kg/day

## CC(=O)NNC(C)=O
[3]
  outcome: inactive; no positive results

## O
[3]
  outcome: inactive; no positive results

## CCCNC(=O)NS(=O)(=O)c1ccc(Cl)cc1
[3]
  outcome: inactive; no positive results

## CC(C)N(C(=O)SC/C(Cl)=C/Cl)C(C)C
[8]
  Potency: 0.0988 mmol/kg/day

## O=C1NCCN1
[3]
  outcome: inactive; no positive results

## Nc1nc(=S)c2ncn([C@H]3C[C@H](O)[C@@H](CO)O3)c2[nH]1
[9]
  outcome: ntp bioassay inadequate

## CC(C)NCC(O)c1ccc2ccccc2c1 (centres undefined)
[3]
  outcome: inactive; no positive results

## CN(C)CCO
[3]
  outcome: inactive

## Cc1ccccc1
[3]
  outcome: inactive; no positive results

## O=NN1CCCC1
  Potency: 0.00678 mmol/kg/day

## COc1cc(NC(=O)C(N=Nc2ccc(-c3ccc(N=NC(C(C)=O)C(=O)Nc4cc(OC)c(Cl)cc4OC)c(Cl)c3)cc2Cl)C(C)=O)c(OC)cc1Cl (centres undefined)
[10]
  outcome: inactive

## Cc1c(COC(=O)C2C(/C=C(\Cl)C(F)(F)F)C2(C)C)cccc1-c1ccccc1 (centres undefined)
[3]
  outcome: inactive; no positive results

## c1ccc2c(c1)[nH]c1ccccc12
TD50_Mouse_Note: TD50 is harmonic mean of more than one positive test, TargetSites_Mouse_Female: liver, stomach
  Potency: 0.981 mmol/kg/day

## CC(=O)c1ccc(S(=O)(=O)NC(=O)NC2CCCCC2)cc1
[3]
  outcome: inactive; no positive results

## CCCCNNCCCC
TD50_Mouse_Note: TD50 is harmonic mean of more than one positive test, TargetSites_Mouse_Female: hematopoietic system, lung
  Potency: 0.213 mmol/kg/day

## Cc1cnc2ccc3c(nc(N)n3C)c2n1
[11]
  Potency: 0.114 mmol/kg/day

## ClC(Cl)C(Cl)Cl
[5]
  Potency: 0.228 mmol/kg/day

## Nc1ncn[nH]1
[5]
  Potency: 0.301 mmol/kg/day

## N[C@@H](Cc1ccc(N(CCCl)CCCl)cc1)C(=O)O
TD50_Mouse_Note: positive test results only by intraperitoneal or intravenous injection, TD50 is harmonic mean of more than one positive, TargetSites_Mouse_Female: lung
  Potency: 0.000491 mmol/kg/day

## [O-][Br+2]([O-])O
[6]
  Potency: 0.322 mmol/kg/day

## ClCOCCCCCCOCCl
[3]
  outcome: inactive

## Cc1ccc([N+](=O)[O-])cc1N
[7]
  Potency: 1.82 mmol/kg/day

## C=CCc1ccc2c(c1)OCO2
[1]
  Potency: 0.316 mmol/kg/day

## COc1ccc(N)cc1
[3]
  outcome: inactive; no positive results

## Nc1cc(S(=O)(=O)[O-])cc2cc(S(=O)(=O)[O-])c(N=Nc3ccc(-c4ccc(N=Nc5c(S(=O)(=O)[O-])cc6cc(S(=O)(=O)[O-])cc(N)c6c5O)c(O)c4)cc3O)c(O)c12.[Cu].[Cu].[Na+].[Na+].[Na+].[Na+]
[5]
  Potency: 0.788 mmol/kg/day

## C=CC(O)c1ccc(OC)cc1 (centres undefined)
[4]
  Potency: 0.352 mmol/kg/day

## Cc1cc(O)cc(C)c1N(C)C
[3]
  outcome: inactive; no positive results

## ClCCOCCCl
[8]
  Potency: 0.0818 mmol/kg/day

## Nc1ccc(N=Nc2ccc(-c3ccc(N=Nc4c(S(=O)(=O)O)cc5cc(S(=O)(=O)O)c(N=Nc6ccccc6)c(O)c5c4N)cc3)cc2)c(N)c1
TargetSites_Mouse_BothSexes: liver, mammary gland
  Potency: 0.0916 mmol/kg/day

## CCOC(=O)C(C)(C)Oc1ccc(Cl)cc1
[3]
  outcome: inactive; no positive results

## CCCCCC
[4]
  Potency: 352 mmol/kg/day

## Cc1c2ccccc2c(C)c2c1ccc1ccccc12
TargetSites_Mouse_Female: vascular system
  Potency: 0.000328 mmol/kg/day

## O=[N+]([O-])c1ccc(Oc2ccc(Cl)cc2Cl)cc1
[5]
  Potency: 0.405 mmol/kg/day

## CCCN(N)C=O
TD50_Mouse_Note: TD50 is harmonic mean of more than one positive test, TargetSites_Mouse_Female: gall bladder, liver, lung
  Potency: 0.061 mmol/kg/day

## O=C1CCC(=O)O1
[3]
  outcome: inactive; no positive results

## CN(N=O)c1ncnc2nc[nH]c12
[6]
  Potency: 0.101 mmol/kg/day

## C=C1C/C(=C/C)C(=O)O[C@@H]2CCN3CC=C(COC(=O)[C@@]1(O)CO)[C@H]23
TD50_Mouse_Note: TD50 is harmonic mean of more than one positive test, TargetSites_Mouse_Female: lung
  Potency: 0.00564 mmol/kg/day

## C=CCc1ccc(OC)cc1
[4]
  Potency: 0.35 mmol/kg/day

## C=CCNN
TD50_Mouse_Note: TD50 is harmonic mean of more than one positive test, TargetSites_Mouse_Female: lung, vascular system
  Potency: 0.315 mmol/kg/day

## Cc1cc(C)c(N)cc1C
[11]
  Potency: 0.265 mmol/kg/day
[4]
  Potency: 0.0453 mmol/kg/day

## Oc1cccc(O)c1
[3]
  outcome: inactive; no positive results

## NNc1ccc(C(=O)O)cc1
[2]
  Potency: 2.97 mmol/kg/day
[3]
  outcome: inactive

## CCC(Cl)CCC(Cl)C(Cl)CC(Cl)C(Cl)C(Cl)CCl (centres undefined)
TD50_Mouse_Note: TD50 is harmonic mean of more than one positive test, TD50_Mouse_mmol was not calculated for this mixture, but Activiity, TargetSites_Mouse_Female: liver, thyroid gland
  outcome: active; liver

## C=CCOc1ccccc1OCC(O)CNC(C)C (centres undefined)
[3]
  outcome: inactive; no positive results

## CNC[C@H](O)c1ccc(O)c(O)c1
[9]
  outcome: ntp bioassay inadequate

## C[C@H](CCC(=O)O)[C@H]1CC[C@H]2[C@@H]3CC[C@@H]4C[C@H](O)CC[C@]4(C)[C@H]3CC[C@]12C
[3]
  outcome: inactive; no positive results

## ClC(Cl)Cl
TD50_Mouse_Note: TD50 is harmonic mean of more than one positive test, greater than ten-fold variation among TD50 values for positive res, TargetSites_Mouse_Female: liver
  Potency: 0.93 mmol/kg/day

## O=C(OOC(=O)c1ccccc1)c1ccccc1
[10]
  outcome: inactive

## ClC(Cl)C(Cl)(Cl)Cl
[5]
  Potency: 0.283 mmol/kg/day
